Test results as given in PubChem BioAssay AID1259411 (Chemical Carcinogenesis Research Information System (CCRIS), 2018).
Calls of active or inactive are those of the source. The rule behind the calls is not given here.

System: rodent carcinogenicity bioassays, tumor incidence
Assay: CCRIS carcinogenicity studies
Method in brief: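 NCI-built, expert-reviewed records of carcinogenicity and related test outcomes (mutagenicity, tumor promotion/inhibition) compiled from published and report sources, historical span 1985-2011, not updated.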

Measured: carcinogen call

C=CC#N
active: Species: HUMAN, Route: INHALATION, Tumor Site: Type of Lesion: LUNG, COLON active; positive | Species: MOUSE, Strain/Sex: B6C3F1/FEMALE, Route: GAVAGE, Dose: 0, 2.5, 10, 20 MG/KG 5D/WK FOR 104-105 WK (STUDY DURATION: 104-105 WK), Dose: 0, 2.5, 10, 20 MG/KG 5D/WK FOR 104-105 WK (STUDY DURATION: 104-105 WK), Tumor Site: Type of Lesion: FORESTOMACH: SQUAMOUS CELL PAPILLOMA, SQUAMOUS CELL CARCINOMA, SQUAMOUS CELL PAPILLOMA OR CARCINOMA, HARDERIAN GLAND: AD active; positive | Species: MOUSE, Strain/Sex: B6C3F1/FEMALE, Route: GAVAGE, Dose: 0, 2.5, 10, 20 MG/KG/D 5 D/WK FOR 105 WK (STUDY DURATION: 105 WK), Dose: 0, 2.5, 10, 20 MG/KG/D 5 D/WK FOR 105 WK (STUDY DURATION: 105 WK), Tumor Site: Type of Lesion: FORESTOMACH: SQUAMOUS CELL PAPILLOMA, SQUAMOUS CELL CARCINOMA, SQUAMOUS CELL PAPILLOMA OR CARCINOMA, EPITHELIAL HYPERPLA active; positive | Species: MOUSE, Strain/Sex: B6C3F1/MALE, Route: GAVAGE, Dose: 0, 2.5, 10, 20 MG/KG 5D/WK FOR 104-105 WK (STUDY DURATION: 104-105 WK), Dose: 0, 2.5, 10, 20 MG/KG 5D/WK FOR 104-105 WK (STUDY DURATION: 104-105 WK), Tumor Site: Type of Lesion: FORESTOMACH: SQUAMOUS CELL PAPILLOMA, SQUAMOUS CELL CARCINOMA, SQUAMOUS CELL PAPILLOMA OR CARCINOMA, HARDERIAN GLAND: AD active; positive | Species: MOUSE, Strain/Sex: B6C3F1/MALE, Route: GAVAGE, Dose: 0, 2.5, 10, 20 MG/KG/D 5 D/WK FOR 105 WK (STUDY DURATION: 105 WK), Dose: 0, 2.5, 10, 20 MG/KG/D 5 D/WK FOR 105 WK (STUDY DURATION: 105 WK), Tumor Site: Type of Lesion: FORESTOMACH: SQUAMOUS CELL PAPILLOMA, SQUAMOUS CELL CARCINOMA, SQUAMOUS CELL PAPILLOMA OR CARCINOMA, EPITHELIAL HYPERPLA active; positive | Species: RAT, Route: INHALATION, Tumor Site: Type of Lesion: MAMMARY GLAND, NERVOUS SYSTEM (CENTRAL), EAR (ZYMBAL GLAND), Tumor Site: Type of Lesion: MAMMARY GLAND, NERVOUS SYSTEM (CENTRAL), EAR (ZYMBAL GLAND) active; positive | Species: RAT, Route: ORAL, Tumor Site: Type of Lesion: FORESTOMACH, STOMACH, NERVOUS SYSTEM (CENTRAL), EAR (ZYMBAL GLAND), Tumor Site: Type of Lesion: FORESTOMACH, STOMACH, NERVOUS SYSTEM (CENTRAL), EAR (ZYMBAL GLAND) active; positive | Species: RAT, Strain/Sex: F344/FEMALE, Route: ORAL, Dose: 0, 1, 3, 10, 30, 100 PPM IN DRINKING WATER FOR LIFETIME (STUDY DURATION: 26 MO), Dose: 0, 1, 3, 10, 30, 100 PPM IN DRINKING WATER FOR LIFETIME (STUDY DURATION: 26 MO), Tumor Site: Type of Lesion: BRAIN: ASTROCYTOMA, ZYMBAL'S GLAND: SQUAMOUS CELL PAPILLOMA, ADENOMA/CARCINOMA, MAMMARY GLAND: FIBROADENOMA, FORESTOMAC, Tumor Site: Type of Lesion: BRAIN: ASTROCYTOMA, ZYMBAL'S GLAND: SQUAMOUS CELL PAPILLOMA, ADENOMA/CARCINOMA, MAMMARY GLAND: FIBROADENOMA, FORESTOMAC active; positive | Species: RAT, Strain/Sex: F344/MALE, Route: ORAL, Dose: 0, 1, 3, 10, 30, 100 PPM IN DRINKING WATER FOR LIFETIME (STUDY DURATION: 26 MO), Dose: 0, 1, 3, 10, 30, 100 PPM IN DRINKING WATER FOR LIFETIME (STUDY DURATION: 26 MO), Tumor Site: Type of Lesion: BRAIN: ASTROCYTOMA, SPINAL CORD: ASTROCYTOMA, ZYMBAL'S GLAND: SQUAMOUS CELL PAPILLOMA, ADENOMA/CARCINOMA, FORESTOMACH: S, Tumor Site: Type of Lesion: BRAIN: ASTROCYTOMA, SPINAL CORD: ASTROCYTOMA, ZYMBAL'S GLAND: SQUAMOUS CELL PAPILLOMA, ADENOMA/CARCINOMA, FORESTOMACH: S active; positive | Species: RAT, Strain/Sex: SPRAGUE-DAWLEY/FEMALE, Route: GAVAGE, Dose: 0, 0.1, 10 MG/KG/D 7D/WK FOR 20 MO (STUDY DURATION: 20 MO), Dose: 0, 0.1, 10 MG/KG/D 7D/WK FOR 20 MO (STUDY DURATION: 20 MO), Tumor Site: Type of Lesion: BRAIN: ASTROCYTOMA, ZYMBAL'S GLAND/EAR CANAL: CARCINOMA, FORESTOMACH: SQUAMOUS CELL PAPILLOMA/PAPILLOMA, SQUAMOUS CELL C, Tumor Site: Type of Lesion: BRAIN: ASTROCYTOMA, ZYMBAL'S GLAND/EAR CANAL: CARCINOMA, FORESTOMACH: SQUAMOUS CELL PAPILLOMA/PAPILLOMA, SQUAMOUS CELL C active; positive
inactive: Species: RAT, Strain/Sex: SPRAGUE-DAWLEY/FEMALE, Route: GAVAGE, Dose: 0, 5 MG/KG BW IN OLIVE OIL 3/WK FOR 52 WK (STUDY DURATION: LIFETIME), Tumor Site: Type of Lesion: [BRAIN WAS ONLY SITE EVALUATED] inactive; negative
equivocal: Species: MOUSE, Strain/Sex: B6C3F1/FEMALE, Route: GAVAGE, Dose: 0, 2.5, 10, 20 MG/KG 5D/WK FOR 104-105 WK (STUDY DURATION: 104-105 WK), Dose: 0, 2.5, 10, 20 MG/KG 5D/WK FOR 104-105 WK (STUDY DURATION: 104-105 WK), Tumor Site: Type of Lesion: OVARY: MALIGNANT GRANULOSA CELL TUMOR, LUNG (ALVEOLAR/BRONCHIOLAR): ADENOMA OR CARCINOMA
